Laboratory results as given in patent US9233983B2, “Substituted hetero-bicyclic compounds, compositions and medicinal applications thereof” (ADVINUS THERAPEUTICS LIMITED, priority 2012, dated 2016).
pIC50: −log10 of the molar value.

target: human Bruton's Tyrosine Kinase (Btk) (Homo sapiens (Human), UniProt Q06187); assay: Recombinant Human Bruton's Tyrosine Kinase (Btk) Inhibition Assay (HTRF KinEASE-TK); type: biochemical; settings: 20 ng/ml rhBtk, 77 μM ATP (KM), 1 μM TK-Biotin substrate, 90 min; read-out: hBTK IC50
Sequence (Q06187 whole entry): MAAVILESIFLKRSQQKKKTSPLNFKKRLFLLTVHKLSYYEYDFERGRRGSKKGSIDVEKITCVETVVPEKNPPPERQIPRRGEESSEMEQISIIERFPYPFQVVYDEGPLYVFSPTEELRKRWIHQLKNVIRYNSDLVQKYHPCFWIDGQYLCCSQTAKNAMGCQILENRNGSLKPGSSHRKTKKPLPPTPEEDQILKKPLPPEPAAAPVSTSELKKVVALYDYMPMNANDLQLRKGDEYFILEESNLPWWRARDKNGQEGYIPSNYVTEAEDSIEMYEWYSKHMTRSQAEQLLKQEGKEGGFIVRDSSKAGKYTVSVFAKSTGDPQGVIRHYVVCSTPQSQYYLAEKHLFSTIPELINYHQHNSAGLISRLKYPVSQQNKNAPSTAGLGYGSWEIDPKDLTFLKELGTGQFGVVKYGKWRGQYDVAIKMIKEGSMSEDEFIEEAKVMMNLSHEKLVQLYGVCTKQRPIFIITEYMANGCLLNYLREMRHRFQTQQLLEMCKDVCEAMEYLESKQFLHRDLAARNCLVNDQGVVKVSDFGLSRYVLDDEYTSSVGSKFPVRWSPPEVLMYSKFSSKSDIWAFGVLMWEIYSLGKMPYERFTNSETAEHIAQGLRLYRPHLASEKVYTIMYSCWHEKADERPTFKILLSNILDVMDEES

pIC50 | Compound
7.66 | O=C1c2c(F)cc(C3CC3)cc2OCCN1c1cccc(-c2ccnc3[nH]c(C4=CCN(C5COC5)CC4)cc23)c1CO [Example P-12, 8-cyclopropyl-6-fluoro-4-[2-(hydroxymethyl)-3-[2-[1-(oxetan-3-yl)-3,6-dihydro-2H-pyridin-4-yl]-1H-pyrrolo[2,3-b]pyridin-4-yl]phenyl]-2,3-dihydro-1,4-benzoxazepin-5-one]
< 6.00 | Cc1c(-c2ncnc3[nH]c(-c4ccc(C(=O)N5CCC(C(=O)O)CC5)cc4)cc23)cccc1N1CCOc2cc(C3CC3)ccc2C1=O [Example K-14, 1-[4-[4-[3-(8-cyclopropyl-5-oxo-2,3-dihydro-1,4-benzoxazepin-4-yl)-2-methyl-phenyl]-7H-pyrrolo[2,3-d]pyrimidin-6-yl]benzoyl]piperidine-4-carboxylic acid]
6.40 | Cc1c(-c2ncnc3[nH]c(-c4cccc(CN5CCNCC5)c4)cc23)cccc1N1CCOc2cc(C3CC3)ccc2C1=O [Example A-4, 8-cyclopropyl-4-[2-methyl-3-[6-[3-(piperazin-l-ylmethyl)phenyl]-7H-pyrrolo[2,3-d]pyrimidin-4-yl]phenyl]-2.3-dihydro-l,4-benzoxazepin-5-one]
6.44 | Cc1c(-c2ncnc3[nH]c(-c4ccc(C(=O)N5CC(O)C5)cc4)cc23)cccc1N1CCOc2cc(C3CC3)ccc2C1=O [Example K-8, 8-cyclopropyl-4-[3-[6-[4-(3-hydroxyazetidine-1-carbonyl)phenyl]-7H-pyrrolo[2,3-d]pyrimidin-4-yl]-2-methyl-phenyl]-2,3-dihydro-1,4-benzoxazepin-5-one]
6.94 | Cc1c(-c2ncnc3[nH]c(-c4ccc(CN5CCC(C)(O)CC5)cc4)cc23)cccc1N1CCc2cc(C3CC3)ccc2C1=O [Example B-12, 6-cyclopropyl-2-[3-[6-[4-[(4-hydroxy-4-methyl-1-piperidyl)methyl]phenyl]-7H-pyrrolo[2,3-d]pyrimidin-4-yl]-2-rnethyl-phenyl]-3,4-dihydroisoquinolin-1-one]
7.09 | CN1CCN(Cc2ccc(-c3cc4c(-c5cccc(N6CCOc7cc(C8CC8)ccc7C6=O)c5)c(C#N)cnc4[nH]3)cc2)CC1 [Example P-6, 4-[3-(8-cyclopropyl-5-oxo-2,3-dihydro-1,4-benzoxazepin-4-yl)phenyl]-2-[4-[(4-methylpiperazin-1-yl)methyl]phenyl]-1H-pyrrolo[2,3-b]pyridine-5-carbonitrile]
6.77 | Cc1c(-c2ncnc3[nH]c(-c4ccc(C(=O)N5CCCCC5)cc4)cc23)cccc1N1CCOc2cc(C3CC3)ccc2C1=O [Example K-5, 8-cyclopropyl-4-[2-methyl-3-[6-[4-(piperidine-1-carbonyl)phenyl]-7H-pyrrolo[2,3-d]pyrimidin-4-yl]phenyl]-2,3-dihydro-1,4-benzoxazepin-5-one]
6.29 | Cc1c(-c2ncnc3[nH]c(-c4cccc(CN5CCNCC5)c4)cc23)cccc1N1CCc2cc(C3CC3)ccc2C1=O [Example A-3, 6-cyclopropyl-2-[2-methyl-3-[6-[3-(piperazin-1-ylmethyl)phenyl]-7H-pyrrolo[2,3-d]pyrimidin-4-yl]phenyl]-3,4-dihydroisoquinolin-1-one]
8.51 | O=C1c2c(F)cc(C3CC3)cc2OCCN1c1cccc(-c2ccnc3[nH]c(-c4ccc(OCCN5CCC5)cn4)cc23)c1CO [Example Q-2, 4-[3-[2-[5-[2-(azetidin-1-yl)ethoxy]-2-pyridyl]-1H-pyrrolo[2,3-b]pyridin-4-yl]-2-(hydroxymethyl)phenyl]-8-cyclopropyl-6-fluoro-2,3-dihydro-1,4-benzoxazepin-5-one]
< 6.00 | Cc1c(-c2ncnc3[nH]c(-c4ccccc4)cc23)cccc1N1CCc2cc(C3CC3)ccc2C1=O [Example M-2, 6-cyclopropyl-2-[2-methyl-3-(6-phenyl-7H-pyrrolo[2,3-d]pyrimidin-4-yl)phenyl]-3,4-dihydroisoquinolin-1-one]
8.52 | CN1CCN(c2ccc(-c3cc4c(-c5cccc(N6CCOc7cc(C8CC8)ccc7C6=O)c5CO)ccnc4[nH]3)nc2)CC1 [Example S-3, 8-cyclopropyl-4-[2-(hydroxymethyl)-3-[2-[5-(4-methylpiperazin-1-yl)-2-pyridyl]-1H-pyrrolo[2,3-b]pyridin-4-yl]phenyl]-2,3-dihydro-1,4-benzoxazepin-5-one]
< 6.00 | Cc1c(-c2ncnc3[nH]c(C4CCN(CCCO)CC4)cc23)cccc1N1CCOc2cc(C3CC3)ccc2C1=O [Example P-3, 8-cyclopropyl-4-[3-[6-[1-(3-hydroxypropyl)-4-piperidyl]-7H-pyrrolo[2,3-d]pyrimidin-4-yl]-2-methyl-phenyl]-2,3-dihydro-1,4-benzoxazepin-5-one]
7.60 | O=C1c2ccc(C3CC3)cc2OCCN1c1cccc(-c2ccnc3[nH]c(-c4ccc(C(O)CO)cc4)cc23)c1CO (centres unmarked) [Example P-8, 8-cyclopropyl-4-[3-[2-[4-(1,2-dihydroxyethyl)phenyl]-1H-pyrrolo[2,3-b]pyridin-4-yl]-2-(hydroxymethyl)phenyl]-2,3-dihydro-1,4-benzoxazepin-5-one]
6.79 | COC1CN(C(=O)c2ccc(-c3cc4c(-c5cccc(N6CCOc7cc(C8CC8)ccc7C6=O)c5C)ncnc4[nH]3)cc2)C1 [Example K-11, 8-cyclopropyl-4-[3-[6-[4-(3-methoxyazetidine-1-carbonyl)phenyl]-7H-pyrrolo[2,3-d]pyrimidin-4-yl]-2-methyl-phenyl]-2,3-dihydro-1,4-benzoxazepin-5-one]
6.21 | Cc1c(-c2ncnc3[nH]c(C4=CCN(CCO)CC4)cc23)cccc1N1CCOc2cc(C3CC3)ccc2C1=O [Example P-2, 8-cyclopropyl-4-[3-[6-[1-(2-hydroxyethyl)-3,6-dihydro-2H-pyridin-4-yl]-7H-pyrrolo[2,3-d]pyrimidin-4-yl]-2-methyl-phenyl]-2,3-dihydro-1,4-benzoxazepin-5-one]
7.04 | Cc1c(-c2ncnc3[nH]c(-c4ccc(CN5CCOCC5)cc4)cc23)cccc1N1CCOc2cc(C3CC3)ccc2C1=O [Example A-5, 8-cyclopropyl-4-[2-methyl-3-[6-[4-(morpholinomethyl)phenyl]-7H-pyrrolo[2,3-d]pyrimidin-4-yl]phenyl]-2,3-dihydro-1,4-benzoxazepin-5-one]
7.39 | CCN1CCN(Cc2ccc(-c3cc4c(-c5cccc(N6CCc7cc(C8CC8)ccc7C6=O)c5C)ncnc4[nH]3)cc2)CC1 [Example B-4, 6-cyclopropyl-2-[3-[6-[4-[(4-ethylpiperazin-1-yl)methyl]phenyl]-7H-pyrrolo[2,3-d]pyrimidin-4-yl]-2-methyl-phenyl]-3,4-dihydroisoquinolin-1-one]
6.63 | COC1CCN(C(=O)c2ccc(-c3cc4c(-c5cccc(N6CCOc7cc(C8CC8)ccc7C6=O)c5C)ncnc4[nH]3)cc2)CC1 [Example K-10, 8-cyclopropyl-4-[3-[6-[4-(4-methoxypiperidine-1-carbonyl)phenyl]-7H-pyrrolo[2,3-d]pyrimidin-4-yl]-2-methyl-phenyl]-2,3-dihydro-1,4-benzoxazepin-5-one]
7.89 | Cc1c(-c2ncnc3[nH]c(-c4ccc(C5CCN(CCO)CC5)cc4)cc23)cccc1-n1ccc2cc(C3CC3)ccc2c1=O [Example H-1, 6-cyclopropyl-2-[3-[6-[4-[1-(2-hydroxyethyl)-4-piperidyl]phenyl]-7H-pyrrolo[2,3-d]pyrimidin-4-yl]-2-methyl-phenyl]isoquinolin-1-one]
8.10 | CCN1CCN(Cc2ccc(-c3cc4c(-c5cccc(N6CCOc7cc(C8CC8)ccc7C6=O)c5CO)ccnc4[nH]3)cn2)CC1 [Example B-21, 8-cyclopropyl-4-[3-[2-[6-[(4-ethylpiperazin-1-yl)methyl]-3-pyridyl]-1H-pyrrolo[2,3-b]pyridin-4-yl]-2-(hydroxymethyl)phenyl]-2,3-dihydro-1,4-benzoxazepin-5-one]
6.84 | Cc1c(-c2ncnc3[nH]c(-c4ccc(CN5CCOCC5)cc4)cc23)cccc1N1CCc2cc(C3CC3)ccc2C1=O [Example A-6, 6-cyclopropyl-2-[2-methyl-3-[6-[4-(morpholinomethyl)phenyl]-7H-pyrrolo[2,3-d]pyrimidin-4-yl]phenyl]-3,4-dihydroisoquinolin-1-one]
8.05 | CN1CCN(Cc2ccc(-c3cc4c(-c5cccc(N6CCOc7cc(C8CC8)ccc7C6=O)c5CO)ccnc4[nH]3)c(F)c2)CC1 [Example B-18, 8-cyclopropyl-4-[3-[2-[2-fluoro-4-[(4-methylpiperazin-1-yl)methyl]phenyl]-1H-pyrrolo[2,3-b]pyridin-4-yl]-2-(hydroxymethyl)phenyl]-2,3-dihydro-1,4-benzoxazepin-5-one]
6.99 | Cc1c(-c2ccnc3[nH]c(-c4ccc(CN5CCN(C)CC5)cc4)cc23)cccc1N1CCOc2cc(C3CC3)ccc2C1=O [Example B-15, 8-cyclopropyl-4-[2-methyl-3-[2-[4-[(4-methylpiperazin-1-yl)methyl]phenyl]-1H-pyrrolo[2,3-b]pyridin-4-yl]phenyl]-2,3-dihydro-1,4-benzoxazepin-5-one]
6.38 | Cc1c(-c2ncnc3[nH]c(-c4cccc(CN5CCOCC5)c4)cc23)cccc1N1CCOc2cc(C3CC3)ccc2C1=O [Example A-7, 8-cyclopropyl-4-[2-methyl-3-[6-[3-(morpholinomethyl)phenyl]-7H-pyrrolo[2,3-d]pyrimidin-4-yl]phenyl]-2,3-dihydro-1,4-benzoxazepin-5-one]
8.05 | Cc1nn(C2CN(C)C2)cc1-c1cc2c(-c3cccc(N4CCOc5cc(C6CC6)ccc5C4=O)c3CO)ccnc2[nH]1 [Example E-1, 8-cyclopropyl-4-[2-(hydroxymethyl)-3-[2-[3-methyl-1-(1-methylazetidin-3-yl)pyrazol-4-yl]-1H-pyrrolo[2,3-b]pyridin-4-yl]phenyl]-2,3-dihydro-1,4-benzoxazepin-5-one]
7.37 | O=C1c2ccc(C3CC3)cc2OCCN1c1cccc(-c2ccnc3[nH]c(-c4cnn(C5CCOCC5)c4)cc23)c1CO [Example F-2, 8-cyclopropyl-4-[2-(hydroxymethyl)-3-[2-(1-tetrahydropyran-4-ylpyrazol-4-yl)-1H-pyrrolo[2,3-b]pyridin-4-yl]phenyl]-2,3-dihydro-1,4-benzoxazepin-5-one]
